The record followed here is patent publication US20040220164A1, “Triaza compound immunoregulatory agents” (priority 2001, published 2004).

What all share (format): cell-based
One assay deals with HIV-1 strain NL4.3. Description: Anti-HIV-1 assay in MT-4 cells (p24 Ag ELISA, Example 3). In a few lines:
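MT-4 cells infected with HIV-1 NL4.3 in presence of five-fold compound dilutions, incubated 3–5 days until strong viral CPE in untreated infected cells. Supernatant p24 core antigen measured by ELISA; IC50 is concentration giving 50% reduction in p24.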
In general terms: In an ELISA, binding on a coated surface is turned into a signal by an enzyme label.

The next assay deals with HHV-7 (KHR strain). The assay can be described thus: Anti-HHV-7 assay in SupT1 cells (antigen expression, flow cytometry, Example 3). The settings on record: SUP-T1; SupT1 cells; read-out: IC50 HHV-7 (50% reduction of HHV-7 antigen expression). In outline:
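SupT1 cells pre-incubated 30 min at room temperature with five-fold compound dilutions, then infected with HHV-7. Every 2–3 days from day 4, half the medium and cells were replaced with compound-free medium. Once microscopic CPE appeared, HHV-7 antigen expression was measured by flow cytometry.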
In general terms: In flow cytometry, cells or beads pass a laser one at a time.

In assay [1] the target is T1, CD4 (Homo sapiens, UniProt P01730). The assay can be described thus: Cell surface CD4 expression by flow cytometry (anti-CD4 mAb Leu3a-PE). Further details: To study the effect of the CADA derivatives on surface CD4 antigen expression, MT-4 and SupT1 cells were incubated; endogenous in cells; host or cells: MT-4, SupT1, PBMC. The note with it: for CD4 cell surface antigen expression: percentage of positive cells, unit not given; for surface CD4 antigen expression: CADA 3.2 μM; for percentage of cell surface CD4 expression: ATA 24 μM, PMA 8 nM (FIG. 4). In a few lines: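 MT-4, SupT1 cells and PBMCs were exposed at 37° C to CADA hydrochloride (3.2 or 16 μM) for 20 min to 4 days, with ATA (24 μM) and PMA (8 nM) as comparators in SupT1. Cells were stained with PE-anti-CD4 (Leu3a) for 20 min at 4° C and fixed in 1% formaldehyde. Read-out was flow cytometry as % positive cells and MFI.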

Assay [2] addresses T1, CD4. The assay can be described thus: CD4 down-modulation, flow cytometry with FITC-conjugated anti-CD4 (SK3) mAb, SupT1 cells. Further details: To study the effect of the CADA derivatives on surface CD4 antigen expression, MT-4 and SupT1 cells were incubated; endogenous in cells; host or cells: MT-4, SupT1, PBMC. The note with it: for IC50: day 4, read-out: IC50 CD4 (50% inhibition of extracellular CD4 expression) (converted). In outline:
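MT-4 and SupT1 cells were exposed at 37 °C to 5-fold compound dilutions (50–0.08 μg/ml). On day 3 (MT-4) or day 4 (SupT1) they were stained with FITC anti-CD4 (SK3) for 30 min at 4 °C and analysed by flow cytometry. IC50 was derived from MFI as % of untreated control, after isotype subtraction.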

Setting [3] is: Human immunodeficiency virus 1, MT4, MT-4 cells, read-out: IC50 HIV-1 (NL4.3), p24 Ag ELISA.
Where [4] appears, read: Human immunodeficiency virus 1, MT4, 96 h, MT-4 cells, 0.4 μg/ml, 4 days (FIG. 5), read-out: inhibition of NL4.3 virus production (p24).

SMILES strings stand for the structures. Converted amounts (≈) assume the structure as drawn. Like-named read-outs stand apart in the source and are kept apart here.

What is called inhibition is the change of the read-out against control, counted positive when it falls. A word on the IC50: it is the concentration that gives 50% inhibition.

For `C=C1CN(S(=O)(=O)c2ccc(C)cc2)CCCN(C(=O)OCCC)CCCN(S(=O)(=O)c2ccc(C)cc2)C1` [QJ033], in the assay with HIV-1 strain NL4.3 (Human immunodeficiency virus 1, MT4, 96 h, MT-4 cells, 2 μg/ml, 4 days (FIG. 5), read-out: inhibition of NL4.3 virus production (p24)), the inhibition at 2 µg/mL was determined as 56%. For the same compound, the IC50 in the assay with HIV-1 strain NL4.3 (setting [3]) is 1.22 µg/mL (≈ 2.11 µM); in the assay on HHV-7 (KHR strain) it was 0.73 µg/mL (≈ 1.26 µM); on CD4 [2] it was 3.27 µM. Besides, the “inhibition of NL4.3 virus production (p24)” value in the assay with HIV-1 strain NL4.3 (MT-4 cells, 0.4 μg/ml, 4 days (FIG. 5)) is recorded as “no antiviral activity”. On CD4 [1], the “down-regulation of CD4 expression (in words)” value is “down-regulate CD4 expression”.
Turning to `C=C1CN(S(=O)(=O)c2ccc(C)cc2)CCCN(CC2CCCCC2)CCCN(S(=O)(=O)c2ccc(C)cc2)C1` [QJ028], the inhibition at 0.4 µg/mL in the assay on HIV-1 strain NL4.3 (setting [4]) stood at 88%. Also, the IC50 in the assay on HIV-1 strain NL4.3 (setting [3]) was 0.2 µg/mL (≈ 0.34 µM); in the assay on HHV-7 (KHR strain), 0.05 µg/mL (≈ 0.0851 µM); on CD4 [2], 0.425 µM. Further, at CD4 [1], the “down-regulation of CD4 expression (in words)” value is on record as “down-regulate CD4 expression”. Besides, the “selectivity index (CC50/IC50)” value at CD4 [2] is given as “approximately 100”.
For the compound `C=C1CN(S(=O)(=O)c2ccc(C)cc2)CCCN(Cc2ccccc2)CCCN(S(=O)(=O)c2ccc(C)cc2)C1` [CADA], the inhibition at 0.4 µg/mL in the assay on HIV-1 strain NL4.3 (setting [4]) was found to be 25%. Besides, the IC50 with HIV-1 strain NL4.3 (setting [3]) was 0.72 µg/mL (≈ 1.24 µM); in the assay with HIV-1 strain NL4.3 (Human immunodeficiency virus 1, MT4 cells, Table 6, unit inferred, read-out: IC50(HIV-1)), 0.52 µg/mL (≈ 0.894 µM); in the assay with HHV-7 (KHR strain), 0.35 µg/mL (≈ 0.602 µM); on CD4 [2] it was 0.98 µM. For the same compound, the “inhibition of NL4.3 virus production (p24)” value with HIV-1 strain NL4.3 (MT-4 cells, 0.08 μg/ml, 4 days (FIG. 5)) is “no anti-HIV-1 activity”; in the assay on HIV-1 strain NL4.3 (MT-4 cells, 2 μg/ml, 4 days (FIG. 5)) it was “significant inhibition”; in the assay on HIV-1 strain NL4.3 (MT-4 cells, 10 μg/ml, 4 days (FIG. 5)) it was “significant inhibition”. The compound also came in with a p24 level in the assay with HIV-1 strain NL4.3 (MT-4 cells, NL4.3, 0.08 μg/ml, 4 days, infected control cells 325 ng/ml) of 392 ng/mL. The “CD4 cell surface antigen expression” value amounted to 6.3 at CD4 [1] (MT-4 T-cells, CADA 16 μM, 4 days); 0.2 on CD4 [1] (PBMCs, CADA 16 μM, 4 days); 1.2 at CD4 [1] (SupT1 T-cells, CADA 16 μM, 4 days). The “surface CD4 antigen expression” value at CD4 [1] (MT-4 cells, 1 day, control 95.6%) is 4.9%; on CD4 [1] (MT-4 cells, 4 days, control 95.6%), 6.3%; at CD4 [1] (SupT1 cells, 1 day, control 96.4%), 46.4%; at CD4 [1] (SupT1 cells, 4 days, control 96.4%) it was 1.2%. Moreover, at CD4 [1] (PBMCs, CADA 16 μM, 4 days), the “percentage of CD4 expression” value stood at 0.2%. The “percentage of cell surface CD4 expression” value at CD4 [1] (SupT1 cells, 20 minutes, CADA 16 μM) was “still as high as in the untreated cells”; on CD4 [1] (SupT1 cells, 4 hours, CADA 16 μM), “still as high as in the untreated cells”; on CD4 [1] (SupT1 cells, 1 day, CADA 16 μM), “decrease became clearly visible”; at CD4 [1] (SupT1 cells, 4 days, CADA 16 μM), 1.2%. Further, the “effect of human serum on CD4 down-modulation induced by CADA” value on CD4 [1] (presence of human serum) is “did not affect”.
